From patent publication EP1935986B1, “Luminogenic and fluorogenic compounds and methods to detect molecules or conditions” (priority 2005, dated 2006)

Molecular target: T1, QuantiLum Luciferase (Photinus pyralis, UniProt P08659)
T1 construct: purchased Promega Corporation E170
Test: Scaffolds: light emission of luciferin derivatives with QuantiLum luciferase alone, + Co A, + DTT, + Co A and DTT
Format: biochemical, firefly
Experimental: The DTT, Coenzyme A, and QuantiLum stock solutions are the same as those described herein.
This solution was diluted 1:1 with water to produce an enzyme solution labeled "No addition." This solution was diluted 1:1 with 400 mM DTT, pH 8.0 to produce a solution labeled +DTT. This solution was diluted 1:1 with 4 mM Coenzyme A to produce a solution labeled + Co A. Finally, this solution was diluted 1:1 with a solution having both 4 mM Coenzyme A and 400 mM DTT to produce a solution labeled +Co A & DTT.
50 µl samples of these solutions were placed in the wells of luminometer microtiter plates, row A to row G, respeutivly. Row H of the plates was given 50 µl of water.
Reactions in these plates were initiated by addition of 50 µl of solution containing QuantiLum luciferase using a 12 channel micropipette. The solutions added to the rows were: columns 1, 5, and 9 - no addition solution; columns 2, 6, and 10 - + Co A solution; columns 3, 7, and 11 + DTT solution, and; columns 4, 8, and 12 - + Co A and DTT solution. After addition of the enzyme solution to the first row on every plate, a timer was started. After addition of the enzyme solution to the last row on each plate, the plate was sealed and read on a Veritas luminometer.

[1] = Derivative Conc. 1.07, Co A + DTT
[2] = Derivative Conc. 3.13, Co A + DTT
[3] = Derivative Conc. 6.25, Co A + DTT
[4] = Derivative Conc. 12.5, Co A + DTT
[5] = Derivative Conc. 25, Co A + DTT
[6] = Derivative Conc. 50, Co A + DTT
[7] = Derivative Conc. 100, Co A + DTT

T1 sequence (P08659 whole entry): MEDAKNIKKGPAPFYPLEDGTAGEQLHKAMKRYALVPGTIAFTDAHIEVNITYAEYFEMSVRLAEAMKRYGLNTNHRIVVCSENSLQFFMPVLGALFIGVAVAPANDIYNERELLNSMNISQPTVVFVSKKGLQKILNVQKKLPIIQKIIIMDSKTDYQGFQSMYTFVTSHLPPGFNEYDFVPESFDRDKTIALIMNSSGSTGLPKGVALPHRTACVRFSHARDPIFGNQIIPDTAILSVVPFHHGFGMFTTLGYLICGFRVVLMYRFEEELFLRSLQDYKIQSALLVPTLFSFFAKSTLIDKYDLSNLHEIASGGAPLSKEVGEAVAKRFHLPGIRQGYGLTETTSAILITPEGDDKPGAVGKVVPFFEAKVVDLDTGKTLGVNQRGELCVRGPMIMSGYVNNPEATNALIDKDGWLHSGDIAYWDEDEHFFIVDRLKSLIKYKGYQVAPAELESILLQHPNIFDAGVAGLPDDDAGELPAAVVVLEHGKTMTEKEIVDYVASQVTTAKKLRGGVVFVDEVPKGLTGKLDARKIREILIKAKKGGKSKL

For `O=C(O)[C@H]1CSC(c2nc3ccc(OCCO)cc3s2)=N1` [2hydroxyethoxyluciferin ether], the light emission values (Derivative Conc. 1.07, Alone) was 8807, the light emission values (Derivative Conc. 1.07, Co A) was 13847 and the light emission values [1] was 22105. The light emission values (Derivative Conc. 1.07, DTT) was 24491, the light emission values (Derivative Conc. 3.13, Alone) was 10769 and the light emission values (Derivative Conc. 3.13, Co A) was 14986. The light emission values [2] was 32555, the light emission values (Derivative Conc. 3.13, DTT) was 36967 and the light emission values (Derivative Conc. 6.25, Alone) was 14686. For the same compound, the light emission values (Derivative Conc. 6.25, Co A) was 18532, the light emission values [3] was 42815 and the light emission values (Derivative Conc. 6.25, DTT) was 48458. The light emission values (Derivative Conc. 12.5, Alone) was 19586, the light emission values (Derivative Conc. 12.5, Co A) was 21636 and the light emission values [4] was 54630. For the same compound, the light emission values (Derivative Conc. 12.5, DTT) was 61882, the light emission values (Derivative Conc. 25, Alone) was 27356 and the light emission values (Derivative Conc. 25, Co A) was 28679. For the same compound, the light emission values [5] was 67303, the light emission values (Derivative Conc. 25, DTT) was 76612 and the light emission values (Derivative Conc. 50, Alone) was 38444. It also gave a light emission values (Derivative Conc. 50, Co A) of 39320, a light emission values [6] of 87170 and a light emission values (Derivative Conc. 50, DTT) of 98407. For the same compound, the light emission values (Derivative Conc. 100, Alone) was 53804, the light emission values (Derivative Conc. 100, Co A) was 52640 and the light emission values [7] was 94724. The light emission values (Derivative Conc. 100, DTT) was 128249.
`COC(=O)[C@H]1CSC(c2ccc3cc(Oc4ccc(C(F)(F)F)cc4[N+](=O)[O-])ccc3n2)=N1` [GST #4] gave a light emission values (Derivative Conc. 1.07, Alone) of 1146, a light emission values (Derivative Conc. 1.07, Co A) of 1533 and a light emission values [1] of 1714. For the same compound, the light emission values (Derivative Conc. 1.07, DTT) was 1102, the light emission values (Derivative Conc. 3.13, Alone) was 1537 and the light emission values (Derivative Conc. 3.13, Co A) was 1635. The light emission values [2] was 2034, the light emission values (Derivative Conc. 3.13, DTT) was 1458 and the light emission values (Derivative Conc. 6.25, Alone) was 1571. It also gave a light emission values (Derivative Conc. 6.25, Co A) of 1562, a light emission values [3] of 1730 and a light emission values (Derivative Conc. 6.25, DTT) of 1633. For the same compound, the light emission values (Derivative Conc. 12.5, Alone) was 1692, the light emission values (Derivative Conc. 12.5, Co A) was 1275 and the light emission values [4] was 1891. For the same compound, the light emission values (Derivative Conc. 12.5, DTT) was 1474, the light emission values (Derivative Conc. 25, Alone) was 1413 and the light emission values (Derivative Conc. 25, Co A) was 1026. It also gave a light emission values [5] of 1640, a light emission values (Derivative Conc. 25, DTT) of 1492 and a light emission values (Derivative Conc. 50, Alone) of 1598. For the same compound, the light emission values (Derivative Conc. 50, Co A) was 1366, the light emission values [6] was 1729 and the light emission values (Derivative Conc. 50, DTT) was 1354. For the same compound, the light emission values (Derivative Conc. 100, Alone) was 2119, the light emission values (Derivative Conc. 100, Co A) was 1853 and the light emission values [7] was 1990. The light emission values (Derivative Conc. 100, DTT) was 1618.
`CCN(CC)c1ccc2nc(C3=NC(C(=O)O)CS3)sc2c1` (stereo not shown) [diethylaminoluciferin] showed a light emission values (Derivative Conc. 1.07, Alone) of 656110, a light emission values (Derivative Conc. 1.07, Co A) of 688887 and a light emission values [1] of 20592. It also gave a light emission values (Derivative Conc. 1.07, DTT) of 5192, a light emission values (Derivative Conc. 3.13, Alone) of 2259570 and a light emission values (Derivative Conc. 3.13, Co A) of 1941060. It also gave a light emission values [2] of 93423, a light emission values (Derivative Conc. 3.13, DTT) of 47727 and a light emission values (Derivative Conc. 6.25, Alone) of 4009797. It also gave a light emission values (Derivative Conc. 6.25, Co A) of 3457051, a light emission values (Derivative Conc. 6.25, DTT) of 165732 and a light emission values (Derivative Conc. 12.5, Alone) of 5418990. For the same compound, the light emission values (Derivative Conc. 12.5, Co A) was 4485779, the light emission values [4] was 645536 and the light emission values (Derivative Conc. 12.5, DTT) was 682672. It also gave a light emission values (Derivative Conc. 25, Alone) of 6763022, a light emission values (Derivative Conc. 25, Co A) of 5623886 and a light emission values [5] of 1067954. For the same compound, the light emission values (Derivative Conc. 25, DTT) was 1304383, the light emission values (Derivative Conc. 50, Alone) was 8176569 and the light emission values (Derivative Conc. 50, Co A) was 7206157. It also gave a light emission values [6] of 1538668, a light emission values (Derivative Conc. 50, DTT) of 1826771 and a light emission values (Derivative Conc. 100, Alone) of 9082149. For the same compound, the light emission values [7] was 1960750 and the light emission values (Derivative Conc. 100, DTT) was 2180983.
